{"source": "ChEMBL document CHEMBL1201862", "about": "“PubChem BioAssay data set” (2004)", "key": {"[1]": {"assay": "viability of uninfected HEp-2 cells – cell-based, HTS, cytotoxicity control for RSV inhibitor project, dose response (AID 2410)", "type": "functional", "conditions": "human respiratory syncytial virus"}, "[2]": {"system": "Vero", "assay": "cells", "type": "functional, cell-based", "conditions": "Chlorocebus sabaeus"}, "[3]": {"molecular_target": "T1, Cytochrome P450 1A2 (Homo sapiens, UniProt P05177)", "T1 sequence (P05177 whole entry)": "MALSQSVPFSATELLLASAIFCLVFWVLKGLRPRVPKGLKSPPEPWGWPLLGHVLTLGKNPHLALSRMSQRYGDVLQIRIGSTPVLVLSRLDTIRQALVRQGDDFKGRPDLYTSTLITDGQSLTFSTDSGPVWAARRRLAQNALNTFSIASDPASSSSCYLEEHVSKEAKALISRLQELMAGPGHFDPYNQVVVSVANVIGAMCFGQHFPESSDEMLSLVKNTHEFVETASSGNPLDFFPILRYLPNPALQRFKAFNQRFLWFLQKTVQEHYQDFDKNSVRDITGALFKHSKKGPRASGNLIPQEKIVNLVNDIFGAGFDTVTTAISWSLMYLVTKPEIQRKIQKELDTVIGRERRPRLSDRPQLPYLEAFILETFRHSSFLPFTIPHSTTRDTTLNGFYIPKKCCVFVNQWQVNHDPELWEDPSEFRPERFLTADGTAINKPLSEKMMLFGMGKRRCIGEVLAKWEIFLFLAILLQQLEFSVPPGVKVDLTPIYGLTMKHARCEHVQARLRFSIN"}, "[4]": {"molecular_target": "Cytochrome P450 3A4 (Homo sapiens, UniProt P08684)"}, "[5]": {"molecular_target": "Cytochrome P450 2C9 (Homo sapiens, UniProt P11712)"}, "[6]": {"molecular_target": "T2, Aurora kinase A (Homo sapiens, UniProt O14965)", "T2 sequence (O14965 whole entry)": "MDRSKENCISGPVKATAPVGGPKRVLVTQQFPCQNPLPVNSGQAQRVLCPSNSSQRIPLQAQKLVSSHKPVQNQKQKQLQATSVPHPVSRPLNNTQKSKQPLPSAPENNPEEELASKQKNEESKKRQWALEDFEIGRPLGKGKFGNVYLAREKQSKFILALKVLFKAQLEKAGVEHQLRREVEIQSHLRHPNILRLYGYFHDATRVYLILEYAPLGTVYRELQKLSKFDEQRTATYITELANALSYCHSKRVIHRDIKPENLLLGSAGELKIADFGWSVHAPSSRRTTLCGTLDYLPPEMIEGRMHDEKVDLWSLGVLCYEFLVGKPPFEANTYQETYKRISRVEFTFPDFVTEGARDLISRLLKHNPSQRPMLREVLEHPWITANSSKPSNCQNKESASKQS", "type": "functional"}, "[7]": {"molecular_target": "Aurora kinase B (Homo sapiens, UniProt Q96GD4)", "sequence (Q96GD4 whole entry)": "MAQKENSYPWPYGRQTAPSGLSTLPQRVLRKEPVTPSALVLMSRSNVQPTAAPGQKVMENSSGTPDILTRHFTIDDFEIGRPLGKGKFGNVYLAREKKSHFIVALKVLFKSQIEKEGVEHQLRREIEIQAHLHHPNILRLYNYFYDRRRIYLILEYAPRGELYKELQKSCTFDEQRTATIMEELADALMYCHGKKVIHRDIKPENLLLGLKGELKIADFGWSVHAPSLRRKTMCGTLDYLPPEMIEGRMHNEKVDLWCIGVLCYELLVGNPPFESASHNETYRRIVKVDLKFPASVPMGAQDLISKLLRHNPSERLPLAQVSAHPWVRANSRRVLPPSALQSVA", "type": "functional"}, "[8]": {"molecular_target": "Vascular endothelial growth factor receptor 2 (Homo sapiens, UniProt P35968)", "sequence (P35968 whole entry)": "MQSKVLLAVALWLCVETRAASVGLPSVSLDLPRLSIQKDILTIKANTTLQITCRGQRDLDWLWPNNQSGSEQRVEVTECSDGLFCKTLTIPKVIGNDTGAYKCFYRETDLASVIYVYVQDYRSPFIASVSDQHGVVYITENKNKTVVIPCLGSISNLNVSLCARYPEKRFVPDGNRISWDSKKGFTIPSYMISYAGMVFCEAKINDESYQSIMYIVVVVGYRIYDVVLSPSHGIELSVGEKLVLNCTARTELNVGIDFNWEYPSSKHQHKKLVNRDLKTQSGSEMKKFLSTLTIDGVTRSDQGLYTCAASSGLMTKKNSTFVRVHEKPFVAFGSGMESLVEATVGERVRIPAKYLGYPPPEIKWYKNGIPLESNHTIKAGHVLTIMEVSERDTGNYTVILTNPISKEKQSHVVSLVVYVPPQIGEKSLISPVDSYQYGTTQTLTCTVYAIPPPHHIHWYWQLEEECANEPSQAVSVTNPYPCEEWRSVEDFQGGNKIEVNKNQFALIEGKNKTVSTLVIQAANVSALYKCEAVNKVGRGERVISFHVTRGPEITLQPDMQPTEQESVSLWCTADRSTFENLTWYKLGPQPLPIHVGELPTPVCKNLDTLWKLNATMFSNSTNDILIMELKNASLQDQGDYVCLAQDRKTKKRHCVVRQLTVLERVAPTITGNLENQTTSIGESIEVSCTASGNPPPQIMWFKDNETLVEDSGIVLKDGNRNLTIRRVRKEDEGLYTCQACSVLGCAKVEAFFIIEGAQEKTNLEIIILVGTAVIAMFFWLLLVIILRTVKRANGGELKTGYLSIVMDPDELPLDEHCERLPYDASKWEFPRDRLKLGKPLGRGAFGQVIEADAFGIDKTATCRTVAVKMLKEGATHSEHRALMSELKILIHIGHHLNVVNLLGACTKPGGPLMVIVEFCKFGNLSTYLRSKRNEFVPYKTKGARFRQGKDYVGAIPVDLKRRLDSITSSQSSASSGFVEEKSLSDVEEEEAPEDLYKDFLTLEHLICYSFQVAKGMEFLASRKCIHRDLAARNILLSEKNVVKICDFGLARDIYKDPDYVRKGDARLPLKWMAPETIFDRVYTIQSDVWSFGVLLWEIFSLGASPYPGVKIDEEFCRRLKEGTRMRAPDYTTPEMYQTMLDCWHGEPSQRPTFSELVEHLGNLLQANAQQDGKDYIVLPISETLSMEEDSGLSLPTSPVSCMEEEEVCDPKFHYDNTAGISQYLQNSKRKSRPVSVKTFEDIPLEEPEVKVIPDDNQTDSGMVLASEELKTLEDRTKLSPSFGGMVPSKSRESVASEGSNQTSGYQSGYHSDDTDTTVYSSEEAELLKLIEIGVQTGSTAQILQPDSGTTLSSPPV", "type": "functional"}, "[9]": {"system": "HeLa", "assay": "ATP-based viability loss in HeLa cells – cell-based, CellTiter-Glo luminescence, cherry-pick samples, cytotoxicity control for MITF activator project, dose response (AID 540259)", "type": "functional", "conditions": "Homo sapiens"}, "[10]": {"molecular_target": "T3, Streptokinase A (Streptococcus pyogenes serotype M1, UniProt P10520)", "T3 sequence (P10520 whole entry)": "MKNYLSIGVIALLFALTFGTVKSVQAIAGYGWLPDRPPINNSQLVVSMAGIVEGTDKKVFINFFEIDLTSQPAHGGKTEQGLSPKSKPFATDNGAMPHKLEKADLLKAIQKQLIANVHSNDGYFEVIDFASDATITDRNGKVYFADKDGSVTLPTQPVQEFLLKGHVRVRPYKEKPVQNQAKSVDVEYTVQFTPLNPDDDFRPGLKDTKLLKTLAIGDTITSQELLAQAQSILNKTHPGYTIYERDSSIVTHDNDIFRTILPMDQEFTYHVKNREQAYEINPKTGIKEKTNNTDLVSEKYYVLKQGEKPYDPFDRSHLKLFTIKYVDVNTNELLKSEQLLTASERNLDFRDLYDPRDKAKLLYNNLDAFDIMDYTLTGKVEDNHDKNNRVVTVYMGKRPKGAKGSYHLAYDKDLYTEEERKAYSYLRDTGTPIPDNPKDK", "assay": "viability-normalized secreted streptokinase activity reduction – plasminogen activation absorbance, OD405, dose response (AID 1914);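 further: secreted streptokinase activity via plasminogen activation per viability signal from cell pellet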", "type": "functional, Streptococcus pyogenes M1 GAS"}, "[11]": {"system": "Streptococcus sp. 'group A'", "assay": "Streptococcus pyogenes SK(-)GAS viability under kanamycin – luminescence, BacTiterGlo, confirmation, counter-screen for streptokinase expression inhibitor project, dose response (AID 1900)", "type": "functional, organism-based"}, "[12]": {"molecular_target": "T4, Fatty acid synthase (Homo sapiens, UniProt P49327)", "T4 sequence (P49327 whole entry)": "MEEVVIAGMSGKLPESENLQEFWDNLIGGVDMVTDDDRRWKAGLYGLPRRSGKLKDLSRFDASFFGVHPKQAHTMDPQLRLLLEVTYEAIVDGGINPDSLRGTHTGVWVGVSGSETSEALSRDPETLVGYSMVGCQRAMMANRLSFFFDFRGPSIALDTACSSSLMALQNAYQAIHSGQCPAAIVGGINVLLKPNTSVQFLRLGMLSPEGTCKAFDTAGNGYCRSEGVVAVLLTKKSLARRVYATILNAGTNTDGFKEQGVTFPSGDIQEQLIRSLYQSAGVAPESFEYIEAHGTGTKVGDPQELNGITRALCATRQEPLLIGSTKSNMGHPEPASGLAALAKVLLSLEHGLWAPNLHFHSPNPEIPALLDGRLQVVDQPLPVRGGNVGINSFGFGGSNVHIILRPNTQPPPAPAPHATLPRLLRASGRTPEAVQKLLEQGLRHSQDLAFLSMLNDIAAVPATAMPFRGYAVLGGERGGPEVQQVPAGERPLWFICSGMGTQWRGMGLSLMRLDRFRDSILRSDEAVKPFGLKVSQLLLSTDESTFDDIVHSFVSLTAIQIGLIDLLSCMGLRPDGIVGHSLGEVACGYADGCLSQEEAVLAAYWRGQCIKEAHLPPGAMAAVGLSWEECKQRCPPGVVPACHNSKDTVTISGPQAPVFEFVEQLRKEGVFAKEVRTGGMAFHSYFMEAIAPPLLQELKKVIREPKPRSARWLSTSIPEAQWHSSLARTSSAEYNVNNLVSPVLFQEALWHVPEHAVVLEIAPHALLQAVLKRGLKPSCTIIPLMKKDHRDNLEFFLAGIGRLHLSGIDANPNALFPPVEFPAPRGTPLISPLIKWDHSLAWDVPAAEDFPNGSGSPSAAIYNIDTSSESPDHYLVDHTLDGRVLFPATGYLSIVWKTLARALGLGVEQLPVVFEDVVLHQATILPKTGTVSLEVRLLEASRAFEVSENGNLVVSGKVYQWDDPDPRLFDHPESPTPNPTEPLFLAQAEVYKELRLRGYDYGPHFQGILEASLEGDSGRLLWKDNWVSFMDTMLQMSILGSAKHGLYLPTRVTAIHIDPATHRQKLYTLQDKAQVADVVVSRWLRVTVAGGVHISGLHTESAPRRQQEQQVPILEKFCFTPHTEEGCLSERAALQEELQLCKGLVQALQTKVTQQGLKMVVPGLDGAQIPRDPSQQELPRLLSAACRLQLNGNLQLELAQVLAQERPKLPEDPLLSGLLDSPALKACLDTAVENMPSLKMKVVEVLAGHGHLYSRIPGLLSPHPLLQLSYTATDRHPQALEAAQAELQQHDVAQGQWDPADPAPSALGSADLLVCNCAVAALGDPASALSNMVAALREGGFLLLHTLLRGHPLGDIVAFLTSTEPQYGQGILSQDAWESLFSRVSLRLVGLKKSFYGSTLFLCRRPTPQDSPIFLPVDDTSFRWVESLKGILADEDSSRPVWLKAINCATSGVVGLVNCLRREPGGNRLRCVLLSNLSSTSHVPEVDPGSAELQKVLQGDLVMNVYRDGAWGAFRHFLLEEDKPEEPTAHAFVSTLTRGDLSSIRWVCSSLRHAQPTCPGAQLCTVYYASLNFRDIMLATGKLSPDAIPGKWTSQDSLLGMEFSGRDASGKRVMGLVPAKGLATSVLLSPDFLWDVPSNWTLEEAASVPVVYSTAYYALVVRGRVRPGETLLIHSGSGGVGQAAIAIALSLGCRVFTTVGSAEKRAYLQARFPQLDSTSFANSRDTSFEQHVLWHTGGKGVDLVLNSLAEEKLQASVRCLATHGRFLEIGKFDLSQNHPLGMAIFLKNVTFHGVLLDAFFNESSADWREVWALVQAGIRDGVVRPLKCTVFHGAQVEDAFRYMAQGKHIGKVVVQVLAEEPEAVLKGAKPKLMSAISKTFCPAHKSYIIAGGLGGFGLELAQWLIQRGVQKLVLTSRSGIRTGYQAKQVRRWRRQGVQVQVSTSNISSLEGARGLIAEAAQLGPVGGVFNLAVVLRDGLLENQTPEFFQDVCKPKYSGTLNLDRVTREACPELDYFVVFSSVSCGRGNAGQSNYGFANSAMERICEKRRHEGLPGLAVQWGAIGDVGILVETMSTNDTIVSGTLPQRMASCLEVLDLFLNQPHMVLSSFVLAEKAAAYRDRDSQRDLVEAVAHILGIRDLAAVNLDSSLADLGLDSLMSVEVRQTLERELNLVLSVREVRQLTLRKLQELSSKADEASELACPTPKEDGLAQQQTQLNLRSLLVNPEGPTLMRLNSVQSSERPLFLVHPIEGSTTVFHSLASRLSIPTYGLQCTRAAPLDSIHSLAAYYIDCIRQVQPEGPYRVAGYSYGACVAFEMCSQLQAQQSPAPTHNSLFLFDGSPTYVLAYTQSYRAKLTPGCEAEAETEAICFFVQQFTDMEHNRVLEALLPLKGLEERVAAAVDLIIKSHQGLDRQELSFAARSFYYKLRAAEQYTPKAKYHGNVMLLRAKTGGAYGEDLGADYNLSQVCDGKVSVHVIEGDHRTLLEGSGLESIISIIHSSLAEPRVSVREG", "assay": "inhibition of human FAS-TE enzyme activity – biochemical, kinetic fluorescence intensity, dose response (AID 624326);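 further: rate of fluorescence rise from hydrolysis of a fluorogenic O-methyl fluorescein ester substrate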", "type": "functional"}, "[13]": {"molecular_target": "Induced myeloid leukemia cell differentiation protein Mcl-1 (Homo sapiens, UniProt Q07820)", "type": "functional"}, "[14]": {"system": "Streptococcus", "assay": "GAS UMAA2166 growth inhibition – luminescence, BacTiterGlo, counter-screen for streptokinase expression inhibitor project, dose response (AID 1915);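 further: potency for reduction of bacterial viability or growth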", "type": "functional, organism-based"}, "[15]": {"molecular_target": "FAD-linked sulfhydryl oxidase ALR (Homo sapiens, UniProt P55789)", "sequence (P55789 whole entry)": "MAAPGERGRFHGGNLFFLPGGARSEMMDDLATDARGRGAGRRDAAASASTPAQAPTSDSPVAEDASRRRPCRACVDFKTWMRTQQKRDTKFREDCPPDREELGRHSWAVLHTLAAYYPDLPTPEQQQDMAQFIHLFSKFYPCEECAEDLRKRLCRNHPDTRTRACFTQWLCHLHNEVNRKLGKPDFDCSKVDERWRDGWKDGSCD", "assay": "ALR-catalysed DTT oxidation blockers – biochemical, H2O2 detection, luminescence, cherry-pick, dose response (AID 493248)"}, "[16]": {"molecular_target": "T4, Fatty acid synthase", "assay": "inhibition of human FAS-TE enzyme activity – biochemical, endpoint fluorescence intensity, uHTS hits, dose response (AID 624327);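 further: fluorescence from hydrolysis of an O-methyl fluorescein acyl ester substrate by the enzyme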", "type": "functional"}, "[17]": {"molecular_target": "Tyrosine-protein phosphatase non-receptor type 5 (Homo sapiens, UniProt P54829)", "assay": "PTPN5 enzyme inhibition – biochemical, fluorescence intensity, uHTS hits, confirmation (AID 602372)", "type": "functional", "conditions": "read-out: IC50_Mean"}, "[18]": {"molecular_target": "Glucose-6-phosphate 1-dehydrogenase (Homo sapiens, UniProt P11413)", "assay": "inhibition of Homo sapiens G6PD, dose series – biochemical, fluorescence, selectivity assay for P. falciparum G6PD inhibitor project, dose response (AID 504792)", "type": "functional"}, "[19]": {"molecular_target": "Tyrosine-protein phosphatase non-receptor type 11 (Homo sapiens, UniProt Q06124)", "sequence (Q06124 whole entry)": "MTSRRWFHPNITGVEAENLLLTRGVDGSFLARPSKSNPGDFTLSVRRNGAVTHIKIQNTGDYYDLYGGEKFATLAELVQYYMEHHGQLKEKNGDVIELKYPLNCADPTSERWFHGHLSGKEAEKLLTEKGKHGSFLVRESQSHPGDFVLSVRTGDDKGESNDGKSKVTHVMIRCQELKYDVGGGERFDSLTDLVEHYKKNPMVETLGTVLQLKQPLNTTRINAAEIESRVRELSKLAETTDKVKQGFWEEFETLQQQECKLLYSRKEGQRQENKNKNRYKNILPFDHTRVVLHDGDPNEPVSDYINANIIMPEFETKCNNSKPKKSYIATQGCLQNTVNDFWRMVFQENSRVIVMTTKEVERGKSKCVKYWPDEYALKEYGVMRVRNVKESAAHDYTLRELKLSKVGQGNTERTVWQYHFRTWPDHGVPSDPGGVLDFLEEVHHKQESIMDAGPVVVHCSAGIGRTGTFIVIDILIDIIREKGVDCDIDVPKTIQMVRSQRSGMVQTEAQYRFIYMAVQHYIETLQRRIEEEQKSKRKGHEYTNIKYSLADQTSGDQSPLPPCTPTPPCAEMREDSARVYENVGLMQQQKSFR", "assay": "PTPN11 enzyme inhibitors – biochemical, selectivity assay for STEP inhibitor project, dose response (AID 602367)", "type": "functional", "conditions": "read-out: IC50_Mean"}, "[20]": {"molecular_target": "Dual specificity protein phosphatase 3 (Homo sapiens, UniProt P51452)", "assay": "VHR phosphatase inhibition, dose response, selectivity assay for STEP inhibitor project, biochemical (AID 602374)", "type": "functional", "conditions": "read-out: IC50_Mean"}, "[21]": {"system": "Vero", "assay": "cells", "type": "functional", "conditions": "Chlorocebus sabaeus"}}, "note": "Values joined by “and” are separate entries in the source; they are usually repeats but may differ in a detail not shown here. Identical values can stand only once. Active and inactive are the calls of the source."}
{"compound": "CSc1nnc2c3ccccc3n(CCc3ccccc3)c2n1", "values": [{"measurement": "CC50", "setting": "[1]", "result": "> 50 µM (active)"}, {"measurement": "IC50", "setting": "[2]", "result": "> 12.5 µM (active)"}]}
{"compound": "COc1ccc(NC(=O)N2CC[C@@]3(CCCN(C(=O)c4c(C)noc4C)C3)C2)cc1", "values": [{"measurement": "AC50", "setting": "[3]", "result": "inconclusive"}, {"measurement": "AC50", "setting": "[4]", "result": "7.94 µM (inconclusive)"}, {"measurement": "AC50", "setting": "[5]", "result": "inconclusive"}]}
{"compound": "COc1cccc(S(=O)(=O)Nc2ccc3c(c2)C(=NO)c2ccccc2-3)c1", "values": [{"measurement": "Ki", "setting": "[6]", "result": "> 2 µM (inactive) and 2 µM (active)"}, {"measurement": "Ki", "setting": "[7]", "result": "6.31 nM (active) and 15.8 nM (active)"}, {"measurement": "Ki", "setting": "[8]", "result": "3.98 µM (active) and 794 nM (active)"}]}
{"compound": "CCCC(=O)Nc1ccc(C#Cc2ccccc2)cc1", "values": [{"measurement": "AC50", "setting": "[9]", "result": "173 µM (active)"}]}
{"compound": "C/C(=N\\Nc1ccc(C(=O)O)cc1)c1ccc2c(c1)Nc1ccccc1S2", "values": [{"measurement": "AC50", "setting": "[9]", "result": "48.5 µM (active)"}, {"measurement": "EC50", "setting": "[10]", "result": "> 150 µM (not active)"}, {"measurement": "EC50", "setting": "[11]", "result": "3.9 µM (active)"}, {"measurement": "IC50", "setting": "[12]", "result": "6.48 µM (active)"}, {"measurement": "IC50", "setting": "[13]", "result": "36 µM (active)"}, {"measurement": "EC50", "setting": "[14]", "result": "7.08 µM (active)"}, {"measurement": "AC50", "setting": "[15]", "result": "0.013 µM (active)"}, {"measurement": "IC50", "setting": "[16]", "result": "11.7 µM (active)"}]}
{"compound": "O=S(=O)(Nc1ccc(Cl)cc1)c1ccc(N2CCOCC2)c(NC(=S)NCCN2CCOCC2)c1", "values": [{"measurement": "IC50", "setting": "[17]", "result": "8.03 µM (active)"}, {"measurement": "IC50", "setting": "[18]", "result": "> 80 µM (inactive)"}, {"measurement": "IC50", "setting": "[19]", "result": "1.1 µM (active)"}, {"measurement": "IC50", "setting": "[20]", "result": "0.342 µM (active)"}]}
{"compound": "CN(C)CC1CCC/C(=C\\c2ccc(OC(=O)/C=C/c3ccc(Cl)c(Cl)c3)cc2)C1=O", "note": "(stereo not drawn)", "values": [{"measurement": "CC50", "setting": "[21]", "result": "11.5 µM (active)"}, {"measurement": "IC50", "setting": "[2]", "result": "> 25 µM (active)"}]}
